Patent US9422267B2, “Fused pyrimidine compounds and use thereof” (Medivation Technologies, Inc., priority 2012, dated 2016)

Assays:
Assay type in all cases: biochemical
Abl(T315I) = target: T1, Abl(T315I) (Homo sapiens, UniProt P00519, T315I); assay: Caliper kinase profiling: Abl(T315I)
T1 construct: purchased Caliper LifeSciences (ProfilerPro Kinase Selectivity Assay Kits)

ALK = target: T2, ALK (Homo sapiens, UniProt Q9UM73); assay: Caliper kinase profiling: ALK
T2 construct: purchased Caliper LifeSciences (ProfilerPro Kinase Selectivity Assay Kits)

AMPK-α2/β1/γ1 = target: T3, AMPK-α2/β1/γ1 (Homo sapiens, UniProt P54646); assay: Caliper kinase profiling: AMPK-α2/β1/γ1
T3 construct: purchased Caliper LifeSciences (ProfilerPro Kinase Selectivity Assay Kits)

DCAMKL1 = DCAMKL1 (Homo sapiens, UniProt O15075); assay: Caliper kinase profiling: DCAMKL1; conditions: DCAMKL1, 1 μM; read-out: Average % Inh @ 1 μM
EPHA4 = EPHA4 (Homo sapiens, UniProt P54764); assay: Caliper kinase profiling: EPHA4; conditions: EPHA4, 1 μM; read-out: Average % Inh @ 1 μM
EPHB2 = EPHB2 (Homo sapiens, UniProt P29323); assay: Caliper kinase profiling: EPHB2; conditions: EPHB2, 1 μM; read-out: Average % Inh @ 1 μM
Fer = Fer (Homo sapiens, UniProt P16591); assay: Caliper kinase profiling: Fer
FGFR3 = FGFR3 (Homo sapiens, UniProt P22607); assay: Caliper kinase profiling: FGFR3; conditions: FGFR3, 1 μM; read-out: Average % Inh @ 1 μM
FGFR3(K650E) = FGFR3(K650E) (Homo sapiens, UniProt P22607, K650E); assay: Caliper kinase profiling: FGFR3(K650E); conditions: read-out: Average % Inh @ 1 μM
FYN = FYN (Homo sapiens, UniProt P06241); assay: Caliper kinase profiling: FYN
JAK2 = JAK2 (Homo sapiens, UniProt O60674); assay: Caliper kinase profiling: JAK2; conditions: JAK2, 1 μM; read-out: Average % Inh @ 1 μM
KDR = KDR (Homo sapiens, UniProt P35968); assay: Caliper kinase profiling: KDR; conditions: read-out: Average % Inh @ 1 μM
Experimental: The compound was tested at concentrations of 1.0×10^−8 and 1.0×10^−9 M in the RapidKinase192™ panel in duplicate. […] The screening was performed using the Caliper EZReader2, a 4-sipper LabChip, and ProfilerPro Kinase Selectivity Assay Kits 1 and 2. The assay measures the conversion of a fluorescent peptide substrate to a phosphorylated product. Briefly, the reaction mixture was introduced through a capillary sipper onto the microfluidic chip, where the substrate and product were electrophoretically separated and detected by laser-induced fluorescence. The time-dependent fluorescence signal indicates the extent of the reaction.

LCK = LCK (Homo sapiens, UniProt P06239); assay: Caliper kinase profiling: LCK
MST2 = target: T4, MST2 (Homo sapiens, UniProt Q13188); assay: Caliper kinase profiling: MST2
T4 sequence (Q13188 1-491): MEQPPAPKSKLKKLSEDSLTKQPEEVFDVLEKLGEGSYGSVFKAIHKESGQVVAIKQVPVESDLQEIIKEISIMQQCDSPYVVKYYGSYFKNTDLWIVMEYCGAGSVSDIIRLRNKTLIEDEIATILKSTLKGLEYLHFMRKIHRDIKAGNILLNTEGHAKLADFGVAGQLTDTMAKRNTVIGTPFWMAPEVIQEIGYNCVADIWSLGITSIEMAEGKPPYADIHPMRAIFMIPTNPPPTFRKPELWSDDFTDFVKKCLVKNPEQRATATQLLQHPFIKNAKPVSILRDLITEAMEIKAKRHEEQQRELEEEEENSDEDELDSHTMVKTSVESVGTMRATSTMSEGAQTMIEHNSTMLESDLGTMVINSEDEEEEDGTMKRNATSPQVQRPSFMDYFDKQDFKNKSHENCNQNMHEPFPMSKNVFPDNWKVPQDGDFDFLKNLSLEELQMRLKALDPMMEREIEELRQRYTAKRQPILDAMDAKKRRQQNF

PAK5(PAK7) = PAK5(PAK7) (Homo sapiens, UniProt Q9P286); assay: Caliper kinase profiling: PAK5(PAK7); conditions: read-out: Average % Inh @ 1 μM
RET = RET (Homo sapiens, UniProt P07949); assay: Caliper kinase profiling: RET
TYRO3 = target: T5, TYRO3 (Homo sapiens, UniProt Q06418); assay: Caliper kinase profiling: TYRO3
T5 sequence (Q06418 41-890): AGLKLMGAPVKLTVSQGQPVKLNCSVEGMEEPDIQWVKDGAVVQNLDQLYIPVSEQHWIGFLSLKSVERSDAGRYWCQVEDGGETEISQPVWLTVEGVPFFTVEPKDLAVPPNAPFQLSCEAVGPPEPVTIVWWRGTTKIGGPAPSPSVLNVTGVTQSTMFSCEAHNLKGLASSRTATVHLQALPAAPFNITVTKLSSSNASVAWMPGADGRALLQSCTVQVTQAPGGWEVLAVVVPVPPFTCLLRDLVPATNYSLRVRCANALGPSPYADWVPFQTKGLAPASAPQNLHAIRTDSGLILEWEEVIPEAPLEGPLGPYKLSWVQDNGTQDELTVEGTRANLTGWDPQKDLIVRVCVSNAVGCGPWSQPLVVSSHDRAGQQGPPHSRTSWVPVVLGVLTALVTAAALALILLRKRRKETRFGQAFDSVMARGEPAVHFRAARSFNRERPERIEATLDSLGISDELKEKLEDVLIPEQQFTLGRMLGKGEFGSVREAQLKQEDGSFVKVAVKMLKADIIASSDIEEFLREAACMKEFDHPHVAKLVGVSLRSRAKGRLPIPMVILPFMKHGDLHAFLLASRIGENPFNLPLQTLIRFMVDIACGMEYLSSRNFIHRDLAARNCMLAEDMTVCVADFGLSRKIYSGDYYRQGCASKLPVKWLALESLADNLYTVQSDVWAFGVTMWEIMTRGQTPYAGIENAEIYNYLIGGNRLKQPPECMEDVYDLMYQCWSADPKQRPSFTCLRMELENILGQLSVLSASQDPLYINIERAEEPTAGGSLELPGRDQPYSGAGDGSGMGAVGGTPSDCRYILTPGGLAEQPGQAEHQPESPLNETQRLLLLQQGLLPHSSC

[1] = 10 nM, read-out: Average % Inh @ 10 nM
[2] = 100 nM, read-out: Average % Inh @ 100 nM
[3] = 1 μM, read-out: Average % Inh @ 1 μM

LCK, sequence (P06239 whole entry): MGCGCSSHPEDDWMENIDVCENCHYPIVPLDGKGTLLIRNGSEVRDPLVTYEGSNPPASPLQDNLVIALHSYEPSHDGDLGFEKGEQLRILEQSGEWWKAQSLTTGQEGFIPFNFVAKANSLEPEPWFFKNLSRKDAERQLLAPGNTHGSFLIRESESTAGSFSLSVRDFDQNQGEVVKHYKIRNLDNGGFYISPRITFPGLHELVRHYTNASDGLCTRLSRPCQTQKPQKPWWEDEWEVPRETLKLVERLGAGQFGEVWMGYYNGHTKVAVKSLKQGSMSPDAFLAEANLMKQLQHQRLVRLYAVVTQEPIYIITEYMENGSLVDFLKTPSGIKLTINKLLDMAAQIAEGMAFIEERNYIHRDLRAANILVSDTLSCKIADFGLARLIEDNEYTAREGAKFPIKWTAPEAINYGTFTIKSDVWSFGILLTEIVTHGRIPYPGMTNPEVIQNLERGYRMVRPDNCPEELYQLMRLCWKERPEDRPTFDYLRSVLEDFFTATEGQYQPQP
Fer, sequence (P16591 whole entry): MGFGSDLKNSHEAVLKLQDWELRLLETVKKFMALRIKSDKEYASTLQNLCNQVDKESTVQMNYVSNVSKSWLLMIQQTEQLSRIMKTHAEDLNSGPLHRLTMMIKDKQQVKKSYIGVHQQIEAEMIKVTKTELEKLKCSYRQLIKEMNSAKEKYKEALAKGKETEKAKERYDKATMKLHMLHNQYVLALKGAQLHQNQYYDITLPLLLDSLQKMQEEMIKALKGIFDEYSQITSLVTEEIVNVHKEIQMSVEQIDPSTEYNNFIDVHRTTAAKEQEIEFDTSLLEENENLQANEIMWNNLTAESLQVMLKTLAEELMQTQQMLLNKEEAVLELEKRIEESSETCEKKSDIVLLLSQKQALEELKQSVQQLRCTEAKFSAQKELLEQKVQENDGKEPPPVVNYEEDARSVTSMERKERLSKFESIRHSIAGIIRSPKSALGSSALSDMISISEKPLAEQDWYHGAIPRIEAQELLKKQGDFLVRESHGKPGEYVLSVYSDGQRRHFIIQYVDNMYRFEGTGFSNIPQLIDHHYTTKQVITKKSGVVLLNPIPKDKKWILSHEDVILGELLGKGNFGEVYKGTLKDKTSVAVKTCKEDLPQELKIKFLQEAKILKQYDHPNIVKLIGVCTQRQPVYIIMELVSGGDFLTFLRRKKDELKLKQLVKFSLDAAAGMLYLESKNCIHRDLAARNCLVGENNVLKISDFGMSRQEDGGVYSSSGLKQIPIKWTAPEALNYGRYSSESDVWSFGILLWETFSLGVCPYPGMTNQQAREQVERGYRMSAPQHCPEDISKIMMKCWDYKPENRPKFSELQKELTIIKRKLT
FYN, sequence (P06241 whole entry): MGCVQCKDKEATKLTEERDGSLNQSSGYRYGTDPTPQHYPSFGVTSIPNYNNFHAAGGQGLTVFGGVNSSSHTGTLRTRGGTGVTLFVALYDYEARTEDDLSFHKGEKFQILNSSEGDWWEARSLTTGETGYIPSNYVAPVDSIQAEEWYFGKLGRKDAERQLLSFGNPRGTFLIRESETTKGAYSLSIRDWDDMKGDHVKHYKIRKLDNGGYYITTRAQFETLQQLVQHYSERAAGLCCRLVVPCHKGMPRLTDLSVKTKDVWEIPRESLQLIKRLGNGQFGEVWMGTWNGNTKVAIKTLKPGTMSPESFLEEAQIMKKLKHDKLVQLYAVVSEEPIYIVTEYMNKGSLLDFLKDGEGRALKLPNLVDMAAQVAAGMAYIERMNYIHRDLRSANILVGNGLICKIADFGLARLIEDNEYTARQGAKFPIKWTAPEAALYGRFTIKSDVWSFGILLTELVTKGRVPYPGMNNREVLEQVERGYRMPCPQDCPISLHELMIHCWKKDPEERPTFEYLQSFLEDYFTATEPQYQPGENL
RET, sequence (P07949 29-1114): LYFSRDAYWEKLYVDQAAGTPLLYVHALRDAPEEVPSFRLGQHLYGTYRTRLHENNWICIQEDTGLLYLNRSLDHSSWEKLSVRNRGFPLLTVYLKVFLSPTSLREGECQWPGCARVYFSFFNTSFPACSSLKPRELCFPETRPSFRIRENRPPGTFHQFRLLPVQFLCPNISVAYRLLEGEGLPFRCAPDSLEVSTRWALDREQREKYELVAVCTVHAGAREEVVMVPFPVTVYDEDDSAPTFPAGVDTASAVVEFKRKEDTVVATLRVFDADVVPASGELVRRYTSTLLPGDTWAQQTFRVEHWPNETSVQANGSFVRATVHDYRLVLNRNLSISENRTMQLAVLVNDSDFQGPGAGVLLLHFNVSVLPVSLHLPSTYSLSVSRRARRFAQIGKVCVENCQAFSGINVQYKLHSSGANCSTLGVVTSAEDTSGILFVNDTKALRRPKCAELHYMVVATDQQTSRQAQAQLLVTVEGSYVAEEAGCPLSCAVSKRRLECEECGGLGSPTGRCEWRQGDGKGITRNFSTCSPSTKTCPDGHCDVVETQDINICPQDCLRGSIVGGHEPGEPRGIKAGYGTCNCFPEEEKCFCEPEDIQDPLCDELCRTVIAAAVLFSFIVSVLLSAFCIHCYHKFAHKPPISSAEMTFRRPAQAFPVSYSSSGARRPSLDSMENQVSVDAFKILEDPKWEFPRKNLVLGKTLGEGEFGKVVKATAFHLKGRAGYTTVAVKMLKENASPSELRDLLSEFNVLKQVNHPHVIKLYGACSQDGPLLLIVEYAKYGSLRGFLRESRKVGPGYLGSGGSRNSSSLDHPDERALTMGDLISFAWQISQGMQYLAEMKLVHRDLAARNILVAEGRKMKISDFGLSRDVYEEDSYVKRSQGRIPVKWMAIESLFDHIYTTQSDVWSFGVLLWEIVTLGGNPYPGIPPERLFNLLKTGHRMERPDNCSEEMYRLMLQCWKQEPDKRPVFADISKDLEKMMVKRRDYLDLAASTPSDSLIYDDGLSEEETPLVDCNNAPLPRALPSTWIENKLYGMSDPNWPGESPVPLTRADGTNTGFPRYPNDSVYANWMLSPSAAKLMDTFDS
T3 sequence (P54646 whole entry): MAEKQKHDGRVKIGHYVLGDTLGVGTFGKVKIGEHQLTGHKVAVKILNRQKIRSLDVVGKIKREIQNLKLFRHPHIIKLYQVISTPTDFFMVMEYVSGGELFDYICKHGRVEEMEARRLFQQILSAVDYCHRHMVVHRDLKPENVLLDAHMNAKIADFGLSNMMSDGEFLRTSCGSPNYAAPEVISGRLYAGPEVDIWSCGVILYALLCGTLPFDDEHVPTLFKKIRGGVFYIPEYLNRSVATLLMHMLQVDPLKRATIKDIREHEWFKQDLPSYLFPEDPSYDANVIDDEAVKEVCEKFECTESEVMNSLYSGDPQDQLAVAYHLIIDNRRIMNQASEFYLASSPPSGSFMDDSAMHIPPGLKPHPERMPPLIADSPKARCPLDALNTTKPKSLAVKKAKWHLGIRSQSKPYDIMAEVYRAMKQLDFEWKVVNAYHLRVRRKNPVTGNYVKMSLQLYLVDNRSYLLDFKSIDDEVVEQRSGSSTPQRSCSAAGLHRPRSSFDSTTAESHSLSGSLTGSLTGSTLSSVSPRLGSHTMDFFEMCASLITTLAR
T3 sequence (Q9Y478 whole entry partner): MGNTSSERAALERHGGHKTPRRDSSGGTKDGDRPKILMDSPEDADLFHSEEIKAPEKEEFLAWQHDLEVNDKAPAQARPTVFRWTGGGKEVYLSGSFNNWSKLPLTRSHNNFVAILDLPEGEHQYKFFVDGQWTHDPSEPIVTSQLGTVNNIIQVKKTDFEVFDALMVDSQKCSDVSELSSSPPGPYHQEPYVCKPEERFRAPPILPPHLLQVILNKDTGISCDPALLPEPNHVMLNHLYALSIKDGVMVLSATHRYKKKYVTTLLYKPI
T3 sequence (P54619 whole entry partner): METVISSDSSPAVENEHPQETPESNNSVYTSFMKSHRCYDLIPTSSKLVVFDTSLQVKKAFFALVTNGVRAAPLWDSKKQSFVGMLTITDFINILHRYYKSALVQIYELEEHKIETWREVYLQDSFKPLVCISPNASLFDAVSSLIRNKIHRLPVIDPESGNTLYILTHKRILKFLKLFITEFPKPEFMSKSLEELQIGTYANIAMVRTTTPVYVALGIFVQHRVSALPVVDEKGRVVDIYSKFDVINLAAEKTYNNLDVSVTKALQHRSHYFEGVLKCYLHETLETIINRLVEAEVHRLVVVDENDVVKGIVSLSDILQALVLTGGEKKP
PAK5(PAK7), sequence (Q9P286 whole entry): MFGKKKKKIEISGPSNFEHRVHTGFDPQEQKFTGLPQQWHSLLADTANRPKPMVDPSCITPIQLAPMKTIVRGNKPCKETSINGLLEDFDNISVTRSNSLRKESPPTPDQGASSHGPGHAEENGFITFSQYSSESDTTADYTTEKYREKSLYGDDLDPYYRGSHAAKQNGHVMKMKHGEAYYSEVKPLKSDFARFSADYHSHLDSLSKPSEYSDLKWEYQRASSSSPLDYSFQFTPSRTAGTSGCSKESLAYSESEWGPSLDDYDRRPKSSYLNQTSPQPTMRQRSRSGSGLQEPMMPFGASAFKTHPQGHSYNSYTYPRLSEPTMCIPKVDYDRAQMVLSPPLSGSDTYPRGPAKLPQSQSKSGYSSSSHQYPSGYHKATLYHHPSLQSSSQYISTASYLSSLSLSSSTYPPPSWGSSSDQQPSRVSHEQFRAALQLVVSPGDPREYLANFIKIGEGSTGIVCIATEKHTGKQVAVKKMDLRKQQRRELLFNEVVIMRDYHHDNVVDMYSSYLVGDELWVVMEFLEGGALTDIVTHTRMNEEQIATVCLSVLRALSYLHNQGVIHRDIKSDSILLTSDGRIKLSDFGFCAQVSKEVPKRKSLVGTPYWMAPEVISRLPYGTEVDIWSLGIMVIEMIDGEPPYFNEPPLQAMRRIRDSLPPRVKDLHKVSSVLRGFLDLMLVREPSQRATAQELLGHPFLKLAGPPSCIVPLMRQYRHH

inhibition at 0.01 µM (Abl(T315I); [1]): < 39% | inhibition at 0.1 µM (Abl(T315I); [2]): < 39% | inhibition at 1 µM (Abl(T315I); [3]): > 60% | inhibition at 0.01 µM (ALK; [1]): < 39% | inhibition at 0.1 µM (ALK; [2]): < 39% | inhibition at 1 µM (ALK; [3]): > 60% | inhibition at 0.01 µM (AMPK-α2/β1/γ1; AMPK-α2/β1/γ1, 10 nM, read-out: Average % Inh @ 10 nM): < 39% | inhibition at 0.1 µM (AMPK-α2/β1/γ1; AMPK-α2/β1/γ1, 100 nM, read-out: Average % Inh @ 100 nM): 40 to 59% | inhibition at 1 µM (AMPK-α2/β1/γ1; AMPK-α2/β1/γ1, 1 μM, read-out: Average % Inh @ 1 μM): > 60% | inhibition at 1 µM (DCAMKL1): 40 to 59% | inhibition at 1 µM (EPHA4): 40 to 59% | inhibition at 1 µM (EPHB2): > 60% | inhibition at 0.01 µM (Fer; [1]): < 39% | inhibition at 0.1 µM (Fer; [2]): > 60% | inhibition at 1 µM (Fer; [3]): > 60% | inhibition at 1 µM (FGFR3): > 60% | inhibition at 1 µM (FGFR3(K650E)): > 60% | inhibition at 0.01 µM (FYN; [1]): < 39% | inhibition at 0.1 µM (FYN; [2]): > 60% | inhibition at 1 µM (FYN; [3]): > 60% | inhibition at 1 µM (JAK2): > 60% | inhibition at 1 µM (KDR): 40 to 59% | inhibition at 0.01 µM (LCK; [1]): < 39% | inhibition at 0.1 µM (LCK; [2]): < 39% | inhibition at 1 µM (LCK; [3]): > 60% | inhibition at 0.01 µM (MST2; MST2, 10 nM, read-out: Average % Inh @ 10 nM): < 39% | inhibition at 0.1 µM (MST2; MST2, 100 nM, read-out: Average % Inh @ 100 nM): < 39% | inhibition at 1 µM (MST2; MST2, 1 μM, read-out: Average % Inh @ 1 μM): > 60% | inhibition at 1 µM (PAK5(PAK7)): 40 to 59% | inhibition at 0.01 µM (RET; [1]): < 39% | inhibition at 0.1 µM (RET; [2]): 40 to 59% | inhibition at 1 µM (RET; [3]): > 60% | inhibition at 0.01 µM (TYRO3; TYRO3, 10 nM, read-out: Average % Inh @ 10 nM): < 39% | inhibition at 0.1 µM (TYRO3; TYRO3, 100 nM, read-out: Average % Inh @ 100 nM): < 39% | inhibition at 1 µM (TYRO3; TYRO3, 1 μM, read-out: Average % Inh @ 1 μM): > 60%
Structure (SMILES): O=C(Nc1ccc(F)nc1)C1CCCN1c1nc2c(c(Nc3cc(C4CC4)[nH]n3)n1)CCC2 (single isomer, unassigned) [Compound 2b, 1-(4-(5-cyclopropyl-1H-pyrazol-3-ylamino)-6,7-dihydro-5H-cyclopenta[d]pyrimidin-2-yl)-N-(6-fluoropyridin-3-yl)pyrrolidine-2-carboxamide]
